Laboratory results as given in publication PMC9161972 (Journal of Medical Virology, 2022).
Where two headings read alike, the source gives them in different places. Where a SMILES comes first, the peptide text is derived from it. The star is where a group is joined. Cbz = O=C(OCc1ccccc1)*; CHN2 = [N-]=[N+]=C*; tBu = CC(C)(C)*

Key:
[1] = test system: HIV/EBOV pseudovirus (Ebola virus Zaire Mayinga glycoprotein); assay: organism not typed; type: cell-based; conditions: for IC50: read-out: IC50 HIV/EBOV
[2] = test system: HIV/MARV pseudovirus (Marburg virus Musoke glycoprotein); assay: organism not typed; type: cell-based; conditions: for IC50: read-out: IC50 HIV/MARV
[3] = test system: HIV/MLAV pseudovirus (Měnglà virus glycoprotein); assay: organism not typed; type: cell-based; conditions: for IC50: read-out: IC50 HIV/MLAV
in vitro = conditions: human
[4] = test system: HIV/VSV pseudovirus (control); type: cell-based, vesicular stomatitis virus
MLAV = conditions: cited from earlier work

Compound	IC50 ([1]; A549, 48 h) [µM]	IC50 ([2]; A549, 48 h) [µM]	IC50 ([3]; A549, 48 h) [µM]	CC50 (in vitro) [µM]	further results
Fc1ccc([C@@H]2CCNC[C@H]2COc2ccc3c(c2)OCO3)cc1 [Paroxetine]	0.36 ± 0.4	1.83 ± 0.66	4.88 ± 1.7	23.6 ± 2.5	selectivity index (SI) with MLAV [3]: 5
NCCc1ccc(S(=O)(=O)F)cc1 [AEBSF]	–	–	–	–	inhibition of EBOV pseudovirus entry (in words) [1]: limited inhibition; IC50 [1]: 19.1 ± 0.58 µM; inhibition of MARV pseudovirus entry (in words) [2]: limited inhibition; IC50 [2]: 29 ± 1.7 µM; inhibition of MLAV pseudovirus entry (in words) [3]: unable to effectively inhibit; IC50 [3]: 36.7 ± 10.4 µM; CC50 (A549 cells): ~100 µM
CCCNC(=O)[C@H]1O[C@@H]1C(=O)N[C@H](C(=O)N1CCC[C@H]1C(=O)O)[C@@H](C)CC [CA‐074]	–	–	–	–	IC50 [1]: 28.4 ± 6.56 µM; inhibition of VSV pseudovirus entry at 100 µM (in words) [4]: resistant; inhibition of MARV pseudovirus entry at 100 µM (in words) ([2]; at 100 µM): resistant; IC50 [2]: > 100 µM; inhibition of MLAV pseudovirus entry at 100 µM (in words) ([3]; at 100 µM): resistant; IC50 [3]: > 100 µM; CC50 (A549 cells): > 100 µM
CC(C)COCC(CN(Cc1ccccc1)c1ccccc1)N1CCCC1 (centres unmarked) [Bepridil]	3.27 ± 0.4	7.37 ± 0.9	9.74 ± 0.94	34.7 ± 4.6	–
CN[C@H]1CC[C@@H](c2ccc(Cl)c(Cl)c2)c2ccccc21 [Sertraline]	–	–	–	15 ± 0.9	–
CN1[C@@H]2CC[C@H]1C[C@@H](OC(c1ccccc1)c1ccccc1)C2 [Benztropine]	–	–	–	54.5 ± 2	–
CC(C)(C)Oc1ccc(C[C@H](NC(=O)[C@H](Cc2ccccc2)NC(=O)OCc2ccccc2)C(=O)C=[N+]=[N-])cc1 [Cathepsin L Inhibitor III] (Cbz-Phe-Tyr(tBu)-CHN2)	–	–	–	–	IC50 [1]: 0.75 ± 0.19 µM; inhibition of VSV pseudovirus entry at 100 µM (in words) [4]: no inhibition; IC50 [2]: 2.38 ± 0.4 µM; IC50 [3]: 7.14 ± 1.5 µM; CC50 (A549 cells): > 100 µM
CN(C)CCCN1c2ccccc2CCc2ccccc21 [Imipramine]	2 ± 0.65	5.55 ± 1.12	7.91 ± 0.81	76.3 ± 7.4	–
CCCCOc1cc(C(=O)NCCN(CC)CC)c2ccccc2n1 [Dibucaine]	2.93 ± 1.04	5.82 ± 0.37	10.8 ± 1.68	51.3 ± 1.2	–
CC(=O)N[C@@H](CC(C)C)C(=O)N[C@@H](CC(C)C)C(=O)N[C@H](C=O)CCCNC(=N)N [Leupeptin]	0.41 ± 0.04	0.92 ± 0.27	1.24 ± 0.29	> 100	inhibition of VSV pseudovirus entry (in words) [4]: ineffective
CNCCC(Oc1ccc(C(F)(F)F)cc1)c1ccccc1 (centres unmarked) [Fluoxetine]	–	–	–	28.7 ± 0.1	–
CN(C)CCOc1ccc(/C(=C(/CCCl)c2ccccc2)c2ccccc2)cc1 [Toremifene]	0.06 ± 0.05	1.75 ± 0.86	3.63 ± 0.72	25.3 ± 1.6	inhibition of MLAV (in words) (MLAV): inhibited MLAV
CC(C)[C@H](NC(=O)OCc1ccccc1)C(=O)N[C@H](C=O)Cc1ccccc1 [MDL‐28170] (Cbz-Val-Phe-aldehyde)	1.44 ± 0.2	1.69 ± 0.46	9.46 ± 1.69	> 100	inhibition of EBOV pseudovirus entry (in words) [1]: can block; inhibition of MARV pseudovirus entry (in words) [2]: can block; inhibition of MLAV pseudovirus entry (in words) [3]: can block
